On the set-up of data set [1]: method as in PMID 27437883. The following applies: hospitalizing type 2 diabetes mellitus patients, overall and high-risk subgroups; cited from earlier work.
The conditions of data set [2]: cited from earlier work.
The conditions of data set [3]: LC-MS/MS method; cited from earlier work.
Data set [4] in a line: Stability of enalapril and enalaprilat in spiked plasma under different storage conditions. The format is physicochemical, human. The following applies: for Stability: n = 6; for Stability test results: spiked plasma and stock solutions, room temperature for 20 hrs, freeze-thaw cycles, autosampler, accelerated stability. The source says:
(4) Stability. Stability validation was done in triplicate run for low, mid, and high QC samples and calculated from spiked calibration curve. […]

The conditions of data set [5]: single oral intake of 20 mg of enalapril, 24 healthy subjects, GC-MS method; cited from earlier work.
A short description of data set [6]: Bioequivalence study of two enalapril 20 mg tablet formulae, plasma levels by LC-MS/MS. The settings on record: single oral dose 20 mg, 30 healthy male volunteers. The format is in vivo, human. The procedure:
Protein precipitation were done for each sample by using acetonitrile. The mobile phase was prepared by mixing of 70% methanol and 30% of a mixture of 20 mM ammonium acetate and 0.2 mM formic acid, while the stationary phase was RP-C18 column (50 × 4.0 mm ID, 5 μm). The column was maintained at 40°C, while the autosampler temperature was 4°C. The flow rate was 1.0 ml/min. The plasma levels of the analytes were measured after a single dose of 20 mg enalapril tablets under fasting conditions.
In this study we applied a clinical study similar to that of [16] with modification. Thirty healthy adult male volunteers participated in this study after signing an informed consent. […]
After fasting period (12 hrs, overnight), each volunteer was given an oral dose containing 20 mg of enalapril either “A, reference” or “B, tested” formula with 200 mL of water in the sequence determined by randomization. […]
The pharmacokinetic parameters considered for assessment of the bioequivalence study between the reference drug and test drug were as follows: maximum plasma concentration (Cmax), area under plasma concentration/time plot until the last quantifiable value (AUC0–72), auxiliary parameters, time of the maximum plasma concentration (tmax), elimination half-life time (t-half), and area under plasma concentration/time plot extrapolated to infinity (AUC0–∞). […]

On the set-up of data set [7]: method as in doi:10.5012/bkcs.2004.25.6.878. The settings on record: after oral administration of enalapril, LC-MS method; cited from earlier work.
[8] abbreviates: Accelerated stability at −30.0°C for 30 days, QC 3 ng/ml, plasma.
The mark [9] stands for this setting: Accelerated stability at −30.0°C for 30 days, QC 100 ng/ml, plasma.
The mark [10] stands for this setting: Accelerated stability at −30.0°C for 30 days, QC 160 ng/ml, plasma.
Where [11] appears, read: Autosampler stability 24 h at 4°C, QC 3 ng/ml.
[12] abbreviates: Autosampler stability 24 h at 4°C, QC 100 ng/ml.
Where [13] appears, read: Autosampler stability 24 h at 4°C, QC 160 ng/ml.
Where [14] appears, read: Freeze and thaw stability at −20°C (3 cycles), QC 3 ng/ml, plasma.
Setting [15] is: Freeze and thaw stability at −20°C (3 cycles), QC 100 ng/ml, plasma.
The mark [16] stands for this setting: Room temperature stability for 10 h, QC 3 ng/ml, plasma.
Where [17] appears, read: Room temperature stability for 10 h, QC 100 ng/ml, plasma.
The mark [18] stands for this setting: Room temperature stability for 10 h, QC 160 ng/ml, plasma.

Molecules are shown by their SMILES. Structures can show the parent of a compound that is named as a salt. Where two headings read alike, the source gives them in different places.

As to `N[C@@H](CC(=O)N1CCn2c(nnc2C(F)(F)F)C1)Cc1cc(F)c(F)cc1F` [sitagliptin], the “Effect on the risk for heart failure” value in data set [1] is recorded as “did not affect”.

For orientation: Cmax means the peak of the concentration-time curve. Consider `C[C@H](N[C@@H](CCc1ccccc1)C(=O)O)C(=O)N1CCC[C@H]1C(=O)O` [enalaprilat], for which the Half-life in data set [2] was 30 to 35 h. The “Time of maximum plasma concentration” value in data set [2] (enalaprilat after administration of enalapril) is 3 to 4 h. For the same compound, the “AUC0–t” value in data set [3] is 401 ± 89 ng·h/mL. In addition, the “AUC0–∞” value in data set [3] was 420 ± 91 ng·h/mL. For the same compound, in data set [3], the maximum concentration (Cmax) is 47.5 ± 12.4 ng/mL. In addition, the T1/2 in data set [3] is reported as 6.71 ± 2.22 h. Besides, the tmax in data set [3] is on record as 4.20 ± 1.06 h. The Stability is recorded as 110.47% in data set [4] (setting [8]); 103.62% in data set [4] (setting [9]); 96.68% in data set [4] (setting [10]); 100.94% in data set [4] (setting [11]); 99.93% in data set [4] (setting [12]); 102.09% in data set [4] (setting [13]). Besides, the Stability was 95.31% in data set [4] (setting [14]); 96.70% in data set [4] (setting [15]); 101.18% in data set [4] (Freeze and thaw stability at −20°C (3 cycles), QC 160 ng/ml, plasma); 98.02% in data set [4] (setting [16]); 98.47% in data set [4] (setting [17]); 100.17% in data set [4] (setting [18]). The Stability test results in data set [4] is reported as “greater than 85%”.

For the compound `CCOC(=O)[C@H](CCc1ccccc1)N[C@@H](C)C(=O)N1CCC[C@H]1C(=O)O` [enalapril, (S)-1-(N-(1-(ethoxycarbonyl)-3-phenylpropyl)-L-alanyl)-Lproline (Z)-2-butenedioate salt], the Bioavailability in data set [2] (absorbed from the gastrointestinal tract) is 60–70%. The “Plasma level after 4 hrs” value in data set [2] (after 4 hrs) was < 10 ng/mL. In addition, the “Effect of presence of food in the GI tract on absorption” value in data set [2] is on record as “not affected”. Moreover, the Terminal half-life entry in data set [2] is given as “about 2 h”. In addition, in data set [2] (enalapril, after oral administration), the “Time to maximum plasma concentration” value was ≤ 1 h. For the same compound, the “Cmax, mean” value in data set [5] was 72.9 ± 41.6 ng/mL. In addition, the tmax in data set [5] is given as 4.0 ± 1.4 h; in data set [3], 0.860 ± 0.310 h. In addition, the “AUC0–t” value in data set [3] was 136 ± 36 ng·h/mL. For the same compound, the “AUC0–∞” value in data set [3] was 138 ± 36 ng·h/mL. For the same compound, in data set [3], the peak concentration (Cmax) is 90.5 ± 28.4 ng/mL. In data set [3], the T1/2 is recorded as 1.35 ± 0.61 h. In addition, the Tolerability in volunteers entry in data set [6] was “well tolerated”. In addition, the “Maximum plasma concentration (Cmax), mean” value in data set [7] is 102 ± 39 ng/mL. The “Time to maximum plasma concentration (tmax)” value in data set [7] is listed as 0.96 ± 0.36 h. Further, the Stability in data set [4] (setting [8]) came out at 97.81%; in data set [4] (setting [9]) it was 96.59%; in data set [4] (setting [10]), 85.10%; in data set [4] (setting [11]), 95.83%; in data set [4] (setting [12]), 98.34%; in data set [4] (setting [13]) it was 95.40%. In addition, the Stability in data set [4] (setting [14]) was 96.45%; in data set [4] (setting [15]), 98.54%; in data set [4] (setting [16]), 99.57%; in data set [4] (setting [17]) it was 101.64%; in data set [4] (setting [18]) it was 103.66%. The Stability test results in data set [4] was “greater than 85%”.

The values above are taken from publication PMC5574226, “A Liquid Chromatography-Tandem Mass Spectrometry Method for Evaluation of Two Brands of Enalapril 20 mg Tablets in Healthy Human Volunteers” (Journal of Analytical Methods in Chemistry, 2017).
